Data published in US12264134B2 (Merck Sharp & Dohme LLC, priority 2018, dated 2025).

These compounds were tested against IDO1 (Homo sapiens, UniProt P14902) (assay: IDO1 Cellular Assay in HeLa Cells Stimulated with IFNγ). Details: read-out: HeLa Cell Potency, IC50.
Chain of IDO1 (P14902 whole entry): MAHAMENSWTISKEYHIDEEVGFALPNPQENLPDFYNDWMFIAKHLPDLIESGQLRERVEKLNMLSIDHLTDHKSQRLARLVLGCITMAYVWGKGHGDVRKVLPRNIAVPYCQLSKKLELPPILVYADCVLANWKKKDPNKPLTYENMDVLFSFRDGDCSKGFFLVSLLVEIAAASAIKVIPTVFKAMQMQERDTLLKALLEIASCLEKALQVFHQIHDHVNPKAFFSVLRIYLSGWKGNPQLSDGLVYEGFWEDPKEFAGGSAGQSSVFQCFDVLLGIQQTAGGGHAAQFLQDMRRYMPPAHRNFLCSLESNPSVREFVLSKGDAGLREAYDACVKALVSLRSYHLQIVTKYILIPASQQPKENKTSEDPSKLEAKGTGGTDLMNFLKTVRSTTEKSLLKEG
Assay type: cell-based
An IC50 of 258 nM was found for `Cc1cccc(N2CCN(C(=O)Cn3nc(C(=O)N4CCN(C(=O)CN)CC4)c4c3CCC4)CC2)c1C` [Example 398, 2-amino-1-(4-(1-(2-(4-(2,3-dimethylphenyl)piperazin-1-yl)-2-oxoethyl)-1,4,5,6-tetrahydrocyclopenta[c]pyrazole-3-carbonyl)piperazin-1-yl)ethanone] in this work. An IC50 of 10.4 nM was found for `C[C@@H]1CN(C(=O)c2nn(CC(=O)N3CCN(c4cccc5c4CCCC5)CC3)c3c2CCC3)C[C@H](C)O1` [Example 52, 2-{3-[(2R,6S)-2,6-dimethylmorpholine-4-carbonyl]-5,6-dihydrocyclopenta[c]pyrazol-1(4H)-yl}-1-[4-(5,6,7,8-tetrahydronaphthalen-1-yl)piperazin-1-yl]ethan-1-one] in this work. An IC50 of 195 nM was found for `Cc1cccc(N2CCN(C(=O)Cn3nc(C(=O)N4CC[C@@H](O)[C@@H](F)C4)c4c3C(O)CC4)CC2)c1C` (single isomer, unassigned) [Example 423] in this work. An IC50 of 12.7 nM was found for `Cc1cccc(N2CCN(C(=O)Cn3nc(C(=O)N4C[C@@H](C)O[C@@H](C)C4)c4c3CCC4)CC23CC3)c1C` [Example 447, 2-(3-((2R,6S)-2,6-dimethylmorpholine-4-carbonyl)-5,6-dihydrocyclopenta[c]pyrazol-1(4H)-yl)-1-(4-(2,3-dimethylphenyl)-4,7-diazaspiro[2.5]octan-7-yl)ethanone] in this work. An IC50 of 2.99 nM was found for `Cc1cccc(N2CCN(C(=O)Cn3nc(C(=O)N4CCC(CCO)C4)c4c3CCC4)CC2)c1C` (centres unmarked) [Example 154, 1-[4-(2,3-dimethylphenyl)piperazin-1-yl]-2-{3-[3-(2-hydroxyethyl)pyrrolidine-1-carbonyl]-5,6-dihydrocyclopenta[c]pyrazol-1(4H)-yl}ethan-1-one] in this work. An IC50 of 692 nM was found for `Cc1cccc(N2CCN(C(=O)Cn3nc(C(=O)N4CC[C@@H](O)[C@@H](F)C4)c4c3C(O)CC4)CC2)c1C` (mixture of isomers) [Example 421, 1-(4-(2,3-dimethylphenyl)piperazin-1-yl)-2-(3-((3S,4R)-3-fluoro-4-hydroxypiperidine-1-carbonyl)-6-hydroxy-5,6-dihydrocyclopenta[c]pyrazol-1(4H)-yl)ethanone] in this work. An IC50 of 7.98 nM was found for `Cc1cccc(N2CCN(C(=O)Cn3nc(C(=O)N4CCC(O)C(CO)C4)c4c3CCC4)CC2)c1C` (centres unmarked) [Example 148, 1-[4-(2,3-dimethylphenyl)piperazin-1-yl]-2-{3-[4-hydroxy-3-(hydroxymethyl)piperidine-1-carbonyl]-5,6-dihydrocyclopenta[c]pyrazol-1(4H)-yl}ethan-1-one] in this work. An IC50 of 2.32 nM was found for `Cc1c(Cl)cccc1N1CCN(C(=O)Cn2nc(C(=O)N3CCC(O)CC3)c3c2CCC(F)C3)CC1` (centres unmarked) [Example 372, 1-(4-(3-chloro-2-methylphenyl)piperazin-1-yl)-2-(5-fluoro-3-(4-hydroxypiperidine-1-carbonyl)-4,5,6,7-tetrahydro-1H-indazol-1-yl)ethan-1-one] in this work. An IC50 of 13.2 nM was found for `Cc1cccc(N2CCN(C(=O)Cn3nc(C(=O)N4CC[C@H](O)[C@H](F)C4)c4c3CC(C(F)F)C4)CC2)c1C` (single isomer, unassigned) [Example 12] in this work. An IC50 of 1.47 nM was found for `Cc1cccc(N2CCN(C(=O)Cn3nc(C(=O)N4CC[C@H](O)[C@H](F)C4)c4c3C[C@H]3C[C@@H]43)C3(CC3)C2)c1C` [Example 364, 1-(7-(2,3-dimethylphenyl)-4,7-diazaspiro[2.5]octan-4-yl)-2-((3bR,4aR)-3-((3R,4S)-3-fluoro-4-hydroxypiperidine-1-carbonyl)-3b,4,4a,5-tetrahydro-1H-cyclopropa[3,4]cyclopenta[1,2-c]pyrazol-1-yl)ethanone] in this work. An IC50 of 447 nM was found for `C[C@@H]1CN(C(=O)c2nn(CC(=O)N3CCN(c4ccc(F)c(C(F)F)c4)CC3)c3c2CCC3)C[C@H](C)O1` [Example 58, 1-{4-[3-(difluoromethyl)-4-fluorophenyl]piperazin-1-yl}-2-{3-[(2R,6S)-2,6-dimethylmorpholine-4-carbonyl]-5,6-dihydrocyclopenta[c]pyrazol-1(4H)-yl}ethan-1-one] in this work. An IC50 of 4.49 nM was found for `Cc1c(Cl)cccc1N1CCN(C(=O)Cn2nc(C(=O)N3CCC(O)(CF)CC3)c3c2CCC(F)(F)C3)CC1` [Example 383, 1-(4-(3-chloro-2-methylphenyl)piperazin-1-yl)-2-(5,5-difluoro-3-(4-(fluoromethyl)-4-hydroxypiperidine-1-carbonyl)-4,5,6,7-tetrahydro-1H-indazol-1-yl)ethan-1-one] in this work. An IC50 of 18.5 nM was found for `Cc1cccc(N2CCN(C(=O)Cn3nc(C(=O)N4C5CCC4CC(O)C5)c4c3CCC4)CC2)c1C` (centres unmarked) [Example 150, 1-[4-(2,3-dimethylphenyl)piperazin-1-yl]-2-[3-(3-hydroxy-8-azabicyclo[3.2.1]octane-8-carbonyl)-5,6-dihydrocyclopenta[c]pyrazol-1(4H)-yl]ethan-1-one] in this work. An IC50 of 146 nM was found for `COc1cc(F)c(N2CCN(C(=O)Cn3nc(C(=O)N4C[C@@H](C)O[C@@H](C)C4)c4c3CCC4)CC2)cc1F` [Example 62, 1-[4-(2,5-difluoro-4-methoxyphenyl)piperazin-1-yl]-2-{3-[(2R,6S)-2,6-dimethylmorpholine-4-carbonyl]-5,6-dihydrocyclopenta[c]pyrazol-1(4H)-yl}ethan-1-one] in this work. An IC50 of 83.1 nM was found for `C[C@@H]1CN(C(=O)c2nn(CC(=O)N3CCN(c4cccc5c4cnn5C)CC3)c3c2CCC3)C[C@H](C)O1` [Example 79, 2-{3-[(2R,6S)-2,6-dimethylmorpholine-4-carbonyl]-5,6-dihydrocyclopenta[c]pyrazol-1(4H)-yl}-1-[4-(1-methyl-1H-indazol-4-yl)piperazin-1-yl]ethan-1-one] in this work. An IC50 of 30.2 nM was found for `Cc1cccc(N2CCN(C(=O)Cn3nc(C(=O)N4CC[C@@H](O)[C@@H](F)C4)c4c3CCC3(C4)CC3(F)F)CC2)c1C` (stereo partly drawn) [Example 304, 2-{2,2-difluoro-3′-[(3S,4R)-3-fluoro-4-hydroxypiperidine-1-carbonyl]-6′,7′-dihydrospiro[cyclopropane-1,5-indazol]-1′(′4H)-yl}-1-[4-(2,3-dimethylphenyl)piperazin-1-yl]ethan-1-one] in this work. An IC50 of 57.1 nM was found for `C[C@@H]1CN(C(=O)c2nn(CC(=O)N3CCN(c4ccc(Cl)c(F)c4)CC3)c3c2CCC3)C[C@H](C)O1` [Example 54, 1-[4-(4-chloro-3-fluorophenyl)piperazin-1-yl]-2-{3-[(2R,6S)-2,6-dimethylmorpholine-4-carbonyl]-5,6-dihydrocyclopenta[c]pyrazol-1(4H)-yl}ethan-1-one] in this work. An IC50 of 0.59 nM was found for `CC(=O)NC1CCN(C(=O)c2nn(CC(=O)N3CCN(c4cccc(C)c4Cl)CC3)c3c2CCCC3)CC1` [Example 453, N-(1-(1-(2-(4-(2-chloro-3-methylphenyl)piperazin-1-yl)-2-oxoethyl)-4,5,6,7-tetra hydro-1H-indazole-3-carbonyl)piperidin-4-yl) acetamide] in this work. An IC50 of 2.75 nM was found for `Cc1cccc(N2CCN(C(=O)Cn3nc(C(=O)N4CCC(C)(O)CC4)c4c3CCC4)CC2)c1C` [Example 82, 1-[4-(2,3-dimethylphenyl)piperazin-1-yl]-2-[3-(4-hydroxy-4-methylpiperidine-1-carbonyl)-5,6-dihydrocyclopenta[c]pyrazol-1(4H)-yl]ethan-1-one] in this work. An IC50 of 30.4 nM was found for `Cc1ccc(N2CCN(C(=O)Cn3nc(C(=O)N4C[C@@H](C)O[C@@H](C)C4)c4c3CCC4)CC2)cc1F` [Example 64, 2-{3-[(2R,6S)-2,6-dimethylmorpholine-4-carbonyl]-5,6-dihydrocyclopenta[c]pyrazol-1(4H)-yl}-1-[4-(3-fluoro-4-methylphenyl)piperazin-1-yl]ethan-1-one] in this work.
